Assay [1] deals with pancreas of the anesthetized cat. Conditions: standard used for comparison; cited from earlier work.
Assay [2] shares this test system. As to the kind of experiment: secretin bioassay: stimulation of secretion of alkali in the pancreatic juice in the anesthetized cat. Format: in vivo. The method, then: The biological activity was measured by the ability to stimulate the secretion of alkali in the pancreatic juice in the anesthetized cat (Mutt, v. and Soderberg, U. On the assay of secretin. Ark.Kem. 15, 63-68, 1959). The sample was compared to a secretin standard with an established activity of 3500 units per mg. […] Proteolytic fragmentation

Where “and” joins values, the source holds several entries; their conditions need not be identical. Equal entries are not always repeated. No end group written: not given here.

Regarding “secretin (HSDGTFTSELSRLRDSARLQRLLQGLV-NH2; UniProt P63298 33-59, looked up) [porcine secretin, intestinal hormone peptide composed of 27 amino acid residues, C-terminal valine amidated]”, the “established activity of secretin standard” value in assay [1] is recorded as 3500 units per mg. Also, the “ALKALI SECRETED” value is 130 μequiv. and 116 μequiv in assay [2] (Cat. 1, dose 47 pmole); 182 μequiv. and 170 μequiv in assay [2] (Cat. 1, dose 94 pmole); 110 μequiv in assay [2] (Cat. 2, dose 47 pmole); 150 μequiv in assay [2] (Cat. 2, dose 94 pmole). Further, the “ALKALI SECRETED per dose” value in assay [2] (Cat. 1, dose 47 pmole) is 2.7 μequiv.pmole and 2.5 μequiv.pmole; in assay [2] (Cat. 1, dose 94 pmole), 1.9 μequiv.pmole and 1.8 μequiv.pmole; in assay [2] (Cat. 2, dose 47 pmole), 2.3 μequiv.pmole; in assay [2] (Cat. 2, dose 94 pmole), 1.6 μequiv.pmole.

The values are drawn from patent publication US4840785A, “Mammal intestinal hormone precursor and its use” (priority 1985, dated 1989).
